# Experimental data published in ChEMBL document CHEMBL1153619, “The role of phenolic hydroxy groups in the free radical scavenging activity of betalains” (J Nat Prod, 2009).
# Columns and labels:
# [1] = Antioxidant activity assessed as Trolox molar equivalence for reduction of Fe(III) at pH 3.6 by ferric reducing antioxidant power assay; assay type: functional
# [2] = ABTS radical scavenging activity assessed as Trolox equivalent antioxidant capacity index at pH 7 by spectrophotometry; assay type: physicochemical
Activity [2],SMILES,Activity [1]
–,CCC/N=C\C=C1/C=C(C(=O)O)N[C@H](C(=O)O)C1,1.1
2.3,O=C(O)C1=C/C(=C\C=N/CCc2ccccc2)C[C@@H](C(=O)O)N1,1.1
4.1,O=C(O)C1=C/C(=C\C=N/CCc2cccc(O)c2)C[C@@H](C(=O)O)N1,2.7
–,O=C(O)C1=C/C(=C\C=N/CCc2ccc(O)c(O)c2)C[C@@H](C(=O)O)N1,3.3
4,O=C(O)C1=C/C(=C\C=N/CCc2ccc(O)cc2)C[C@@H](C(=O)O)N1,1.1
2.7,Oc1ccc(/C=C/c2cc(O)cc(O)c2)cc1 [RESVERATROL],–

SMILES,Activity [2],Activity [1]
O=C(O[C@@H]1Cc2c(O)cc(O)cc2O[C@@H]1c1cc(O)c(O)c(O)c1)c1cc(O)c(O)c(O)c1 [EPIGALOCATECHIN GALLATE],4.8,–
